Earlier results on two molecules are cited in patent publication US20040202693A1, “Pharmaceutical compositions releasing their active agents from a buccal or sublingual location to overcome an absorption window problem” (priority 2003, published 2004).

Molecules are shown by their SMILES. Where two headings read alike, the source gives them in different places.

The conditions of data set [1]: oral administration in conventional dosage forms, upper portion of the gastrointestinal tract.

On to `C[C@H]1c2cccc(O)c2C(=O)C2=C(O)[C@]3(O)C(=O)C(C(N)=O)=C(O)[C@@H](N(C)C)[C@@H]3[C@@H](O)[C@@H]21` [Doxycycline], for which, in data set [1], the absorption result is “rapidly and almost completely absorbed”.

For `O=C(O[C@H]1C[C@H]2CC[C@@H](C1)[N+]21CCCC1)C(O)(c1ccccc1)c1ccccc1` [Trospium chloride], the bioavailability result is, setting by setting: (after oral administration) “approximately 10%”; (enteric-coated formulation) “significant decrease of bioavailability”. For the same molecule, the absorption result (after rectal administration) is reported as “almost no absorption at all”.
